Drawing on ChEMBL document CHEMBL3507680, “University of Dundee, Gates Library screen for HepG2 cell viability”, this text covers cytotoxicity for 96 compounds.

This data set can be described thus: Human HepG2 cell viability assay in 384 well format. More on the design: dose 125 nL, time 70.5 hour; concentration not given beside the values. The following applies: HepG2 cells, read-out: Inhibition. The format is toxicity, cell-based.
With `CNC(=O)C(C)(C)N1CCC[C@H]1C(=O)NC1CCCC1`, the cytotoxicity at 70.5 h was -0.301%.
As for `COCCN1C[C@H]2CN(C(=O)NCc3ccccc3)CCN2C1=O`, the figure is -8.58%; as for `O=C(NC[C@H]1OC[C@@H](NC2COC2)[C@@H]1O)C1CCCC1`, -8.61%.
As for `Cc1ccc(CNC2(Cc3cc(-c4cccc(O)c4)on3)COC2)o1`, the figure is -8.24%; as for `CC(C)(O)c1cc(CC2(NCc3ccccc3Cl)COC2)no1`, -0.604%.
Take `CC(C)(C)CN[C@@H]1CO[C@H](CNC(=O)c2ccncc2)[C@H]1O`: the cytotoxicity at 70.5 h was found to be 0.614%.
The figure for `Cc1ccc(C)c2c(O)cc(CN3CCNC(=O)C3C)nc12` (stereo unspecified) is -8.28%; for `CN(CC1CCCCO1)c1nc(-c2cccnc2)nc2c1CCNC2` (stereo unspecified) it is -17.5%.
As for `CC(CN1CCOCC1)NC1CCN(Cc2cccc(O)c2)CC1` (stereo unspecified), the figure is -8.8%; as for `CCCN1CCC(Cc2nn3c(C(C)C)nnc3s2)CC1`, 10.4%; as for `CC(C)c1nnc(NCc2cc3n(n2)CCN(C2CCCCC2)C3)s1`, -0.516%.
Consider `Cc1ccsc1CN1CC2(CCN(C(=O)C3CC3)CC2)CC1C(=O)O` (stereo unspecified), for which the cytotoxicity at 70.5 h is 10.8%.
As for `Cc1nn(C)c(Oc2ccc(Cl)cc2)c1CN1CCC(CN)C1` (stereo unspecified), the figure is -8.55%; as for `CCCN(Cc1nccn1C)C(=O)c1cnn[nH]1`, 7.26%; as for `CCCc1nnc(N[C@H](C)c2ccc(OC)cc2)o1`, -10.6%.
In the case of `O=C(C1CCC1)N1CCC(C2CCN(Cc3ccc(Cl)cc3)C2)CC1` (stereo unspecified), the cytotoxicity at 70.5 h was -3.08%.
As for `Cc1nc(C)n(CCNS(=O)(=O)NCc2ccccc2)n1`, the figure is -15.5%; as for `COc1cc(C)ccc1OCc1nc(C(=O)N2CCCO2)co1`, 10.4%.
As for `CCc1cnc(NCC(CC)N2CCOCC2)nc1` (stereo unspecified), the cytotoxicity at 70.5 h was -6.68%.
For `CCC[C@H]1CN(CCS(C)(=O)=O)C[C@@H]1NC(=O)c1ccccc1F`, the cytotoxicity at 70.5 h is -2.49%.
Turning to `COc1cc(C2CC(=O)Nc3c2nc2n3CCCC2)ccc1O` (stereo unspecified), the cytotoxicity at 70.5 h was -7.4%.
In the case of `CCC(CO)N(Cc1cccnc1)Cc1ccc(-c2ccn[nH]2)s1` (stereo unspecified), the cytotoxicity at 70.5 h is -7.15%.
On to `Cn1ccn2ncc(C(=O)NCc3cccnc3N3CCCC(O)C3)c12` (stereo unspecified), for which the cytotoxicity at 70.5 h is -18.3%.
In the case of `CN(Cc1ccon1)CC1CCOc2ccccc2C1` (stereo unspecified), the cytotoxicity at 70.5 h was -8.84%.
Consider `CS(=O)(=O)N1CCC(Oc2ccc(C(=O)NC3CCCC3)cc2Cl)CC1`, for which the cytotoxicity at 70.5 h was -7.15%.
The figure for `Cn1ccnc1CN1CCN(CC2CC2)[C@@H]2CS(=O)(=O)C[C@@H]21` is -7.65%; for `CC(c1cccs1)N(C)C(=O)c1cc(CN(C)Cc2ccccc2)on1` (stereo unspecified) it is -4.76%; for `O=C(Cc1c[nH]c2ccccc12)NCC1CCN(Cc2c[nH]cn2)C1` (stereo unspecified) it is -6.01%.
As for `Cc1cc(CN2CC3(CCN(C(=O)C4CC4)CC3)CC2C(=O)O)oc1C` (stereo unspecified), the figure is -7.26%; as for `O=C(NC1CCCNC1)c1cc(COc2cccc(C(F)(F)F)c2)[nH]n1` (stereo unspecified), -0.657%; as for `Cc1ccccc1-n1cc(-c2ccnc(N[C@@H](CO)C(C)C)n2)cn1`, -7.32%.
As for `CCCn1ncc(C(=O)NCCc2[nH]nc3c2CCCC3)c1C`, the figure is -5.62%; as for `C[C@@H]1CN(C2CCCCC2)CC[C@@]1(O)C1CCOCC1`, -16%.
Regarding `O=C1NCC2(CCCN(Cc3ccccc3OCCO)C2)O1` (stereo unspecified), the cytotoxicity at 70.5 h is -8.84%.
As to `CCC(CO)N(Cc1ccccn1)C(=O)c1ncccc1C` (stereo unspecified), the cytotoxicity at 70.5 h was 15.2%.
The figure for `COc1cccc(OCC2CCCN(C(=O)c3ncc(F)cc3F)C2)c1` (stereo unspecified) is 1.3%; for `COc1ccc(CCN2C(=O)O[C@@H]3CN(C4CCSCC4)C[C@@H]32)cc1` it is -6.37%.
With `Cc1cnc(C)c(N2CCCC(CO)(Cc3ccccc3C)C2)n1` (stereo unspecified), the cytotoxicity at 70.5 h stood at 11.4%.
On to `O=C(N[C@@H]1CCN(c2ncc(Cl)cc2Cl)C[C@H]1O)c1cnccn1`, for which the cytotoxicity at 70.5 h was -2.1%.
As for `CCCc1ccc(CN2CCC3(CCC(=O)N(C(C)C(=O)O)C3)CC2)o1` (stereo unspecified), the figure is -4.9%; as for `CN(C)CC(C)(C)Cn1cnc(-c2ccccc2)c1-c1ncc[nH]1`, 11.7%; as for `Cc1ccc(C(=O)O)c(N2Cc3cnc(C(C)(C)C)nc3C2)n1`, -14.8%.
The figure for `Cc1ccc(C2CC(=O)NCc3nc(N)sc32)cc1C` (stereo unspecified) is -5.03%.
For the compound `COc1ccc2c(c1)OCC(CNC(=O)c1ccncc1)C2` (stereo unspecified), the cytotoxicity at 70.5 h came out at 13.9%.
Take `CCCc1nc(C)cc(N2CCC3(CCC(=O)N(CCOC)C3)CC2)n1`: the cytotoxicity at 70.5 h was -9.62%.
As for `Cn1nccc1C(=O)N1CCOC(Cc2cccc(C(F)(F)F)c2)C1` (stereo unspecified), the cytotoxicity at 70.5 h turned out to be 4.43%.
As for `CCCn1nc(C2CCNCC2)n(Cc2ccccc2)c1=O`, the figure is -7.28%; as for `O=C(CCn1cnnc1)N1CCCC(c2ncc[nH]2)C1` (stereo unspecified), -2.12%; as for `CN(Cc1ccccc1)C1(C(=O)O)Cc2ccccc2C1`, -1.88%.
As for `CC(C)C(=O)N1CCN(C(=O)c2cc(C(C)C)on2)[C@H]2CS(=O)(=O)C[C@H]21`, the figure is 14.2%; as for `O=C1OC2(CCN(C3CCCOC3)CC2)CN1CCc1ccccc1` (stereo unspecified), 5.31%; as for `CN(C)c1nc2c(c(=O)[nH]1)CCN(C(=O)c1cccc3nccnc13)C2`, 2.31%.
As for `CCn1nc(C)c(CCn2ccnc2-c2cc3n(n2)CCCNC3)c1C`, the figure is -3.85%.
Regarding `CC(Cn1cncn1)NCc1nncn1C1CCCCC1` (stereo unspecified), the cytotoxicity at 70.5 h was -1.66%.
Take `COc1ccc(Cl)cc1C(=O)N1CCOC2(CNCCOC2)C1` (stereo unspecified): the cytotoxicity at 70.5 h is -0.31%.
The figure for `CC(C)=CCN1C[C@H]2CC[C@@H]1CN(C(=O)c1c[nH]c(=O)c(Cl)c1)C2` is -1.3%; for `O=C(C1CCC1)N1CCN(Cc2ccsc2)[C@H]2CS(=O)(=O)C[C@H]21` it is -0.678%.
Consider `Cc1ccc(C#N)c(N2CCC(c3nccn3CCN(C)C)CC2)n1`, for which the cytotoxicity at 70.5 h was -7.04%.
The figure for `Cc1nc(CCN(C)C(=O)C2COc3ccccc3C2)no1` (stereo unspecified) is 17.3%; for `Cc1nccn1Cc1nnc(C2CCCN(Cc3cccnc3)C2)n1C` (stereo unspecified) it is 5.17%.
As for `Cc1nc(N)sc1C(=O)N1CCCC(c2nccn2CCCN(C)C)C1` (stereo unspecified), the figure is -5.45%; as for `CCNC(=O)[C@@H]1C[C@@H](NC(=O)Cc2ccccn2)CN1CCCSC`, 14.8%; as for `CCC1CN(C(=O)c2ccc(Cl)cc2O)CCN1C(C)C` (stereo unspecified), -6.93%.
The figure for `O=C(CCCc1cn[nH]c1)N1CCOCC(O)C1` (stereo unspecified) is 0.158%.
As to `CCc1c(C)nn(CCNC(=O)C2CCCN(C(=O)N(C)C)C2)c1C` (stereo unspecified), the cytotoxicity at 70.5 h was -10.4%.
As for `c1cn(Cc2nnc(C3CCN(C4CCOCC4)CC3)n2C2CC2)cn1`, the figure is -4.93%.
As for `CCN1CCn2nc(CCC(=O)N3CCCC3)cc2C1`, the figure is -4.63%; as for `CN1CCC(c2nnc(CN3CCC(O)CC3)n2C)CC1`, -5.78%; as for `Cc1scc(C(=O)N2CCC3(CCCN(C)C3=O)C2)c1-c1ccccc1` (stereo unspecified), -11.2%.
As for `Cc1cc(C)nc(CCNC(=O)[C@H]2CNC[C@@H](C(=O)N3CCCC3)C2)n1`, the figure is 9.67%; as for `CC(C)(C)c1ccn(C2(C(=O)O)CCN(c3nccc(N)n3)CC2)n1`, -3.64%; as for `Cc1nccn1CCC1CCCCN1Cc1ccc(N(C)C)nc1` (stereo unspecified), -10.4%.
With `Cc1nc[nH]c1CN1CCN(C(=O)CCC(F)(F)F)[C@H]2CS(=O)(=O)C[C@H]21`, the cytotoxicity at 70.5 h was -9.24%.
The figure for `O=C1N(Cc2cccc(F)c2F)CCCC1(O)CN1CCCOCC1` (stereo unspecified) is -1.1%.
The figure for `COc1ccc(NC(=O)CCC2CCCN(Cc3ncon3)C2)cc1Cl` (stereo unspecified) is -7.33%; for `Cn1cc(CN2CC[C@@H]3[C@@H](CCC(=O)N3CCc3c[nH]cn3)C2)cn1` it is -6.69%; for `CN(C)[C@H]1CCCCN(C(=O)CCc2csc(N)n2)C1` it is -6.16%.
As for `CC(C)(C)n1cc(C2=CCN(CCc3ccccc3)CC2)cn1`, the cytotoxicity at 70.5 h is -3.25%.
On to `CCc1c(C)sc(NC(=O)CN2CCN(CC)CC2)c1C(=O)OC`, for which the cytotoxicity at 70.5 h is -2.99%.
For the compound `O=S(=O)(Cc1ccccc1F)NCCN1CCOCC1`, the cytotoxicity at 70.5 h is -2.45%.
For `COc1cccc(CN2CCC(c3nccn3C(C)C)CC2)c1`, the cytotoxicity at 70.5 h is -13.1%.
Take `Cc1cc(F)ccc1OC1(C(=O)O)CCN(Cc2ccncc2)CC1`: the cytotoxicity at 70.5 h was -8.64%.
The figure for `COCCN(C)CC(=O)N1C[C@H]2CC[C@@H]1CN(C(=O)c1ccncc1)C2` is -10.1%; for `Nc1nc(CCC(=O)N2CCOC(CC3CCCCC3)C2)cs1` (stereo unspecified) it is -2.5%.
The figure for `COc1ccc(-n2nnc(C(=O)NC(C)C)c2C2CC2)cc1` is -6.86%; for `COC(=O)C1CCN(C(=O)c2ccc(C)c(NS(C)(=O)=O)c2)CC1` it is -8.87%; for `CCCNC(=O)c1ccc(NC(=O)c2cccc(OCC)c2)cc1` it is -7.63%.
As for `O=S(=O)(Cc1ccccc1F)NCCCN1CCCCC1`, the figure is -1.2%; as for `CCC(NC(=O)C1CCN(S(C)(=O)=O)CC1)c1ccc(OC)c(OC)c1` (stereo unspecified), -7.44%.
In the case of `O=C1CC(c2cccs2)c2snc(C(=O)O)c2N1` (stereo unspecified), the cytotoxicity at 70.5 h was -9.35%.
As for `CCCS(=O)(=O)N1CCN(c2cc(-n3nc(C)cc3C)nc(C)n2)CC1`, the figure is -10.3%; as for `COc1ccc(C2CC(=O)Nc3c2cnn3C2CCCC2)cc1` (stereo unspecified), -11.1%; as for `CC(=O)c1cn(CC(=O)NC(C(=O)O)C(C)C)c2ccccc12` (stereo unspecified), 0.278%.
Turning to `CC(COc1ccccc1)NCc1nc(-c2cccnc2)no1` (stereo unspecified), the cytotoxicity at 70.5 h was -1.13%.
As for `CCNC(=O)[C@@H]1CCCN1C1(C(=O)NC)CCCCC1`, the figure is 4.64%; as for `O[C@@H]1C[C@@](CNCc2ccc(Cl)cc2)(COc2cccnc2)C[C@@H]1O`, -10.2%.
